Conditions: 5 mM DMSO-solutions

Row | solubility in DMSO | SMILES
1 | low solubility | CC(C)(C)c1ccc(-c2cn(-c3cc(C(=O)O)cc(-c4ccc(C5CCNCC5)cc4)c3)nn2)cc1 [Compound 79, 5-(4-(4-(tert-Butyl)phenyl)-1H-1,2,3-triazol-1-yl)-4′-(piperidin-4-yl)-[1,1′-biphenyl]-3-carboxylic Acid]
2 | low solubility | CCCCCOc1ccc(-c2cn(-c3cc(C(=O)O)cc(-c4ccc(C5CCNCC5)cc4)c3)nn2)cc1 [Compound 82, 5-(4-(4-(Pentyloxy)phenyl)-1H-1,2,3-triazol-1-yl)-4′-(piperidin-4-yl)-[1,1′-biphenyl]-3-carboxylic Acid]
3 | low solubility | COc1ccc(-c2cn(-c3cc(C(=O)O)cc(-c4ccc(C5CCNCC5)cc4)c3)nn2)cc1OC [Compound 95, 5-(4-(3,4-Dimethoxyphenyl)-1H-1,2,3-triazol-1-yl)-4′-(piperidin-4-yl)-[1,1′-biphenyl]-3-carboxylic Acid]
4 | low solubility | O=C(O)c1cc(-c2ccc(C3CCNCC3)cc2)cc(-n2cc(-c3cc4ccccc4o3)nn2)c1 [Compound 101, 5-(4-(Benzofuran-2-yl)-1H-1,2,3-triazol-1-yl)-4′-(piperidin-4-yl)-[1,1′-biphenyl]-3-carboxylic Acid]

Reference: article PMC4947982 (Journal of Medicinal Chemistry, 2016)
